# Assay results from US20100056623A1, “FUMAGILLOL DERIVATIVES OR METHOD FOR PREPARATION OF FUMAGILLOL DERIVATIVES, AND PHARMACEUTICAL COMPOSITIONS COMPRISING THE SAME” (CHONG KUN DANG PHARMACEUTICAL CORP., priority 2005, published 2010).
# Like-named read-outs stand apart in the source and are kept apart here.
# Tests used:
# [1] = system: CPAE (calf pulmonary artery endothelial cell); assay: Inhibiting activity on cell proliferation, SRB analysis (CPAE); format: cell-based; conditions: for IC50: CPAE cells, 3 days with drug, SRB, read-out: IC50 (nM) CAPE; for Selectivity Index (L5178Y/CAPE): IC50 L5178Y / IC50 CPAE
# Description: (§1) In order to compare the safety index (SI) of CPAE (calf pulmonary artery endothelial cell) with that of HUVEC (human umbilical vein endothelial cell), L5178Y lymphoma that was isolated from murine thymus was used. The safety index was defined as IC50 ratio of L5178Y against CPAE (IC50L5178Y/IC50CPAE). All cell lines, which had been kept in liquid nitrogen tank, were used after being thawed and subcultured 2˜3 times in T-flask. CPAE, HUVEC and L5178Y were cultured in MEM culture medium (20% FBS, 50˜100 μg/ml ECGS, 0.15% baking soda, 0.05 mg/ml gentamicin), M199 culture medium (20% FBS, 0.22% baking soda, 100 μg/ml heparin, 3 ng/ml bFGF, 0.05 mg/ml gentamicin) and RPMI 1640 culture medium (10% FBS, 0.2% baking soda, 0.05 mg/ml gentamicin), respectively, under the condition of 37° C. and 5% CO2.
# (§2) The drug was prepared by being gradationally diluted to two or ten times by using PBS, 20 μl of the solution was added to each well of 96 well plate in triplicate. The cell, which is being incubated, was treated with trypsin to give cell suspension. The number of cell thereafter was counted. And 180 μl of the solution was inoculated to each well and cultured.
# (§3) The cell was cultured with drugs for 3 days and then 50 μl of 50% TCA was added thereto (final concentration 10%). Subsequently the cell was fixed by being left alone at 4° C. for 1 hour. The well was washed 4 times by distilled water and then dried. After that 100 μl of SRB (Sulforhodamine B, Sigma Chemical Co.) solution (0.4% w/v in 1% acetic acid) was added thereto and then it was left alone at ordinary temperature for 30 minutes. Thereafter the well was washed 4 times by 1% acetic acid and dried. And then after adding 200 μl of 10 mM tris buffer, the absorbance at 570 nm was measured by automatic microplate reader (Model: Elx 808, Bio-Tek Instrument, INC). The viability was calculated from the ratio of the absorbance of the control to which drugs were not added and the well to which drugs were added.
# L5178Y lymphoma = assay: Inhibiting activity on cell proliferation, MTT analysis (L5178Y); format: cell-based, murine; conditions: L5178Y lymphoma cells, 3 days with drug
# Description: as §1, §2
# The tumor cell was cultured with drugs for 3 days and then 50 μl of MTT (3-(4,5-dimethylthiazole-2-yl)-2,5-diphenyl tetrazolium bromide, Sigma Chemical Co.) solution (2.5 mg/ml in PBS) was added thereto. And it was further cultured for 4 hours at 37° C. Culture medium was removed carefully. And after dissolving formazan crystal by adding 150 μl of DMSO, the absorbance at 570 nm was determined.
# [2] = system: HUVEC (human umbilical vein endothelial cell); assay: Inhibiting activity on cell proliferation, SRB analysis (HUVEC); format: cell-based; conditions: Homo sapiens, 72 h, HUVEC cells, 3 days with drug
# Description: as §1, §2, §3
# [3] = Chemical stability test (HPLC purity); conditions: for change of purity (in words) / chemical stability compared to known compounds / 1 month Other peaks (%) / 1 month Parent peak (%): 1 month at 40±2° C.; for change of purity (in words) / chemical stability compared to known compounds / 1 month Other peaks (%) / 1 month Parent peak (%) / change of purity (%): 75±5% relative humidity; for 1 month Other peaks (%) / 1 month Parent peak (%) / Initial Other peaks (%) / Initial Parent peak (%): HPLC; for 1 month Other peaks (%) / 1 month Parent peak (%): air-tight vessel; for change of purity (%): initial vs 1 month at 40±2° C.
# Description: Each compound of the present invention was kept in an air-tight vessel for 1 month at 40±2° C. and 75±5% of relative humidity. Thereafter the HPLC purity test was executed.
# 25 mL of the solution was precisely taken, and poured into 100 mL volumetric flask. Acetonitrile/20 mM ammonium acetate aqueous solution (50:50) was added thereto to be the total volume of 100 ml. The solution was filtrated, and the filtrate was used as a test liquid.
# (2) Operational Condition of Instrument. • Column: Kromasil®C18 (UG 100 Å, 5 μm, 4.6 mm Φ×250 mm) • Column temperature: 30° C. • Mobil phase: 20 mM ammonium acetate (pH 4.2) buffer:acetonitrile (55:45) • Injection volume: 20 μL • Flow rate: 1.2 mL/min • Detector: UV light-absorption Spectrophotometer (detection wavelength: 306 nm)
# Solubility test = format: physicochemical; conditions: ordinary temperature
# Description: To a constant amount (400 mg) of each compounds of present invention, a constant amount of demineralized water, methanol and ethanol were added separately, and the solution was stirred at ordinary temperature.
# [4] = Bos taurus, Endothelial cell, 72 h
SMILES,"IC50 [1, 4]",Selectivity Index (L5178Y/CAPE) [1],"IC50 (L5178Y lymphoma; Mus musculus, 72 h)",IC50 [2],change of purity (in words) [3],chemical stability compared to known compounds [3],1 month Other peaks (%) [3],1 month Parent peak (%) [3],Initial Other peaks (%) [3],Initial Parent peak (%) [3],change of purity (%) [3],"The amount of solvent to dissolve 1 g of the compounds (ml), demineralized water (Solubility test)","The amount of solvent to dissolve 1 g of the compounds (ml), ethanol (Solubility test)","The amount of solvent to dissolve 1 g of the compounds (ml), methanol (Solubility test)",IC50 [1],IC50 (L5178Y lymphoma),effect compared to CKD-731 against CPAE ([1]; relative to CKD-731)
"CO[C@@H]1[C@H](OC(=O)/C=C/c2ccc(NCCOCCO)cc2)CC[C@]2(CO2)[C@H]1[C@@]1(C)O[C@@H]1CC=C(C)C [Example 16, O-(4-(2-hydroxyethoxyethylamino)cinnamoyl)fumagillol]",0.041 nM,2.31 × 10^5,9490 nM,0.0022 nM,,,,,,,,,,,,,
"CO[C@@H]1[C@H](OC(=O)/C=C/c2ccc(OCCCCCCO)cc2)CC[C@]2(CO2)[C@H]1[C@@]1(C)O[C@@H]1CC=C(C)C [Example 25, O-(4-(6-hydroxyhexyloxy)cinnamoyl)fumagillol]",0.124 nM,1.70 × 10^5,21100 nM,0.0015 nM,,,,,,,,,,,,,
"CO[C@@H]1[C@H](OC(=O)/C=C/c2ccc(OCCOCCOCCO)cc2)CC[C@]2(CO2)[C@H]1[C@@]1(C)O[C@@H]1CC=C(C)C [Example 27, O-(4-(2-hydroxyethoxyethoxyethoxy)cinnamoyl)fumagillol]",0.089 nM,1.18 × 10^5,10500 nM,,hardly showed a change of purity,"more excellent chemical stability than TNP-470, CKD-732 and CKD-731",1.6%,98.4%,1.6%,98.4%,0%,120 mL,50 mL,30 mL,,,
"COc1cc(/C=C/C(=O)O[C@@H]2CC[C@]3(CO3)[C@@H]([C@@]3(C)O[C@@H]3CC=C(C)C)[C@@H]2OC)cc(OC)c1OCCOCCO [Example 13, O-(3,5-dimethoxy-4-(2-hydroxyethoxyethoxy)cinnamoyl)fumagillol]",0.17 nM,2.03 × 10^5,34600 nM,,,,,,,,,,,,,,
"CO[C@@H]1[C@H](OC(=O)/C=C/c2ccc(Oc3ccc(CO)cc3)cc2)CC[C@]2(CO2)[C@H]1[C@@]1(C)O[C@@H]1CC=C(C)C [Example 8, O-(4-(4-hydroxymethylphenoxy)cinnamoyl)fumagillol]",0.857 nM,7.03 × 10^4,60200 nM,0.00456 nM,,,,,,,,,,,,,
"COc1cc(/C=C/C(=O)O[C@@H]2CC[C@]3(CO3)[C@@H]([C@@]3(C)O[C@@H]3CC=C(C)C)[C@@H]2OC)ccc1OCCOCCO [Example 14, O-(4-(2-hydroxyethoxyethoxy)-3-methoxycinnamoyl)fumagillol]",0.26 nM,1.93 × 10^5,50100 nM,,,,,,,,,,,,,,
"COc1cc(C=CC(=O)OC2CCC3(CO3)C(C3(C)OC3CC=C(C)C)C2OC)cc(OC)c1OC (stereo not drawn) [CKD-731, O-(3,4,5-trimethoxycinnamoyl)fumagillol, reference compound]",,,,,,,2.9%,97.1%,1.1%,98.9%,1.8%,1567 mL,372 mL,350 mL,0.0044 nM,58200 nM,
"CO[C@@H]1[C@H](OC(=O)/C=C/c2ccc(OCCCCO)c(C)c2)CC[C@]2(CO2)[C@H]1[C@@]1(C)O[C@@H]1CC=C(C)C [Example 22, O-(3-methyl-4-(4-hydroxybutoxy)cinnamoyl)fumagillol]",0.048 nM,6.76 × 10^5,32500 nM,,,,,,,,,,,,,,
"COc1cc(/C=C/C(=O)O[C@@H]2CC[C@]3(CO3)[C@@H]([C@@]3(C)O[C@@H]3CC=C(C)C)[C@@H]2OC)ccc1Oc1ccc(CO)cc1 [Example 10, O-(4-(4-hydroxymethylphenoxy)-3-methoxycinnamoyl)fumagillol]",0.711 nM,6.00 × 10^4,42500 nM,,,,,,,,,,,,,,
"CO[C@@H]1[C@H](OC(=O)/C=C/c2ccc(OCCCO)cc2)CC[C@]2(CO2)[C@H]1[C@@]1(C)O[C@@H]1CC=C(C)C [Example 19, O-(4-(3-hydroxypropoxy)cinnamoyl)fumagillol]",0.017 nM,1.46 × 10^6,24900 nM,,,,,,,,,,,,,,
"COc1ccc(/C=C/C(=O)O[C@@H]2CC[C@]3(CO3)[C@@H]([C@@]3(C)O[C@@H]3CC=C(C)C)[C@@H]2OC)cc1OCCOCCO [Example 15, O-(3-(2-hydroxyethoxyethoxy)-4-methoxycinnamoyl)fumagillol]",0.4 nM,1.05 × 10^5,41900 nM,,,,,,,,,,,,,,
"CO[C@@H]1[C@H](OC(=O)/C=C/c2ccc(OCCCO)c(C#N)c2)CC[C@]2(CO2)[C@H]1[C@@]1(C)O[C@@H]1CC=C(C)C [Example 20, O-(3-cyano-4-(3-hydroxypropoxy)cinnamoyl)fumagillol]",0.046 nM,4.45 × 10^5,20500 nM,,,,,,,,,,,,,,
"CO[C@@H]1[C@H](OC(=O)/C=C/c2ccc(OCCOCCO)cc2)CC[C@]2(CO2)[C@H]1[C@@]1(C)O[C@@H]1CC=C(C)C [Example 12, O-(4-(2-hydroxyethoxyethoxy)cinnamoyl)fumagillol]",0.019 nM,1.08 × 10^6,20500 nM,,hardly showed a change of purity,"more excellent chemical stability than TNP-470, CKD-732 and CKD-731",0.6%,99.4%,0.5%,99.5%,0.1%,126 mL,51 mL,35 mL,,,
"CO[C@@H]1[C@H](OC(=O)/C=C/c2ccc(OCCCCO)cc2)CC[C@]2(CO2)[C@H]1[C@@]1(C)O[C@@H]1CC=C(C)C [Example 21, O-(4-(4-hydroxybutoxy)cinnamoyl)fumagillol]",0.029 nM,8.90 × 10^5,25800 nM,,hardly showed a change of purity,"more excellent chemical stability than TNP-470, CKD-732 and CKD-731",1.1%,98.9%,1.0%,99.0%,0.1%,150 mL,97 mL,70 mL,,,
"CO[C@@H]1[C@H](OC(=O)/C=C/c2ccc(OCCO)cc2)CC[C@]2(CO2)[C@H]1[C@@]1(C)O[C@@H]1CC=C(C)C [Example 1, O-(4-(2-hydroxyethoxy)cinnamoyl)fumagillol]",0.0025 nM,6.22 × 10^6,15500 nM,,hardly showed a change of purity,"more excellent chemical stability than TNP-470, CKD-732 and CKD-731",0.6%,99.4%,0.6%,99.4%,0%,135 mL,55 mL,34 mL,,,equivalent or not smaller than twice effect of CKD-731
